# According to PubChem BioAssay (NCI):
# “And” between values parts separate entries of the source, which are not always exact repeats. Equal entries are not always repeated.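 Cultured in 96-well plates, cells were exposed to test compound for 48 hours across five concentrations. GI50 is the concentration that inhibits growth by half. TGI is the concentration that stops growth completely.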
# Columns and labels:
# Assay in all cases: NCI-60 cell line screen, 48 h
# CAKI-1 renal = tested on: CAKI-1 renal
# HT29 colon = tested on: HT29 colon
# KM12 colon = tested on: KM12 colon
# NCI-H23 lung = tested on: NCI-H23 lung
# OVCAR-3 ovarian = tested on: OVCAR-3 ovarian
# OVCAR-4 ovarian = tested on: OVCAR-4 ovarian
# OVCAR-8 ovarian = tested on: OVCAR-8 ovarian
# SF-268 CNS = tested on: SF-268 CNS
# SK-MEL-5 melanoma = tested on: SK-MEL-5 melanoma
# UACC-257 melanoma = tested on: UACC-257 melanoma
Structure (SMILES),TGI (CAKI-1 renal),TGI (HT29 colon),TGI (KM12 colon),TGI (NCI-H23 lung),TGI (OVCAR-3 ovarian),TGI (OVCAR-4 ovarian),TGI (OVCAR-8 ovarian),TGI (SF-268 CNS),TGI (SK-MEL-5 melanoma),TGI (UACC-257 melanoma),GI50 (CAKI-1 renal),GI50 (HT29 colon),GI50 (KM12 colon),GI50 (NCI-H23 lung),GI50 (OVCAR-3 ovarian),GI50 (OVCAR-8 ovarian),GI50 (SK-MEL-5 melanoma),GI50 (UACC-257 melanoma)
Cc1nc(N(C(C)C)C(C)C)c(C(C)C)o1,> 100 µM,> 100 µM,> 100 µM,> 100 µM,> 100 µM,> 100 µM,> 100 µM,> 100 µM,> 100 µM,> 100 µM,,,,,,,,
O=c1ccc2ccccc2c2ccccc12,8.55 µM,6.78 µM,5.76 µM,6.33 µM,11.5 µM,20.4 µM,4.61 µM,6.19 µM,12.7 µM,16.6 µM,,,,,,,,
O=C(O)CCCc1ccccc1,> 1000 µM,> 1000 µM,366 µM and > 1000 µM,> 1000 µM,> 1000 µM,184 µM and > 1000 µM,,348 µM and > 1000 µM,427 µM and > 1000 µM,> 1000 µM,> 1000 µM,221 µM and > 1000 µM,> 1000 µM,377 µM and > 1000 µM,537 µM,150 µM and 17.3 µM,> 1000 µM,340 µM and > 1000 µM
O=C1CSC(c2ccccc2O)N1c1ccc(Oc2ccc(Cl)cc2)c(Cl)c1 (configuration not stated),74 µM,37.3 µM,35.7 µM,46.6 µM,62.4 µM,66.1 µM,74.6 µM,31.4 µM,33.8 µM,81.4 µM,,,,,,,,
COc1ccc(C(=O)Oc2c(C#N)sc3c2c(=O)n(-c2ccccc2)c(=S)n3-c2ccccc2)cc1,68.9 µM,62 µM,54.6 µM,56.3 µM,97.4 µM,79 µM,> 100 µM,> 100 µM,58 µM,> 100 µM,,,,,,,,
OC1COC(OCc2ccccc2)C(O)C1O (configuration not stated),> 100 µM,> 100 µM,> 100 µM,> 100 µM,> 100 µM,> 100 µM,> 100 µM,> 100 µM,> 100 µM,> 100 µM,,,,,,,,
N#Cc1c(-c2ccccc2)cc(-c2ccccc2)n(C2OCC(O)C(O)C2O)c1=S (configuration not stated),61.5 µM,80 µM,27.2 µM,46.4 µM,43.2 µM,70.6 µM,43.7 µM,80 µM,27.9 µM,75.4 µM,,,,,,,,
COC1=C2CC(C)CC(OC)C(OC(=O)CCCN)C(C)/C=C(\C)C(OC(N)=O)C(OC)/C=C\C=C(/C)C(=O)NC(=CC1=O)C2=O (configuration not stated),23.3 µM,13.2 µM,25.7 µM,14.4 µM,16.8 µM,20.4 µM,21.6 µM,24.6 µM,22.4 µM,17.7 µM,,,,,,,,
C/C(N)=N/OCc1nc(C)no1,> 100 µM,> 100 µM,> 100 µM,> 100 µM,> 100 µM,> 100 µM,> 100 µM,> 100 µM,> 100 µM,> 100 µM,,,,,,,,
CC(C)CCC[C@@H](C)[C@H]1CC[C@H]2C3=C[C@H](OS(=O)(=O)O)[C@@]4(O)C[C@@H](O)CC[C@]4(C)[C@@]3(O)CC[C@]12C,> 100 µM,> 100 µM,> 100 µM,> 100 µM,> 100 µM,> 100 µM,> 100 µM,> 100 µM,> 100 µM,> 100 µM,,,,,,,,
